From ChEMBL document CHEMBL3871298, “Virtual screening and biophysical studies lead to HSP90 inhibitors” (Bioorg Med Chem Lett, 2017)
Blank lines part the entries; values can stand above or below the compound they belong to. Activity calls are given as the source filed them. No cut-off for these calls is given here.

What was measured:
[1] = system: Saccharomyces cerevisiae; assay: Binding affinity to yeast HSP90 N-terminal ATP binding domain by high-throughput virtual screening method
[2] = biological target: T1, Heat shock protein HSP 90-alpha (Homo sapiens, UniProt P07900); assay: Binding affinity to human HSP90alpha isoform 1 N-terminal ATP binding domain (9 to 236 residues) expressed in Escherichia coli BL21(DE3) assessed as melting temperature at 100 uM by SYPRO orange dye-based thermal shift assay
[3] = Aqueous solubility of the compound at >100 uM; assay type: physicochemical; conditions: buffer
[4] = biological target: T1, Heat shock protein HSP 90-alpha; assay: Binding affinity to 15N-labeled human HSP90alpha isoform 1 N-terminal ATP binding domain (9 to 236 residues) expressed in Escherichia coli BL21(DE3) by 1H-15N HSQC NMR spectroscopy
[5] = biological target: T1, Heat shock protein HSP 90-alpha; assay: Binding affinity to 15N-labeled human HSP90alpha isoform 1 N-terminal ATP binding domain (9 to 236 residues) expressed in Escherichia coli BL21(DE3) assessed as reduction in protein signal intensity at 625 uM by 1H-15N HSQC NMR spectroscopy

SMILES: O=C(O)COc1cc(OCC(=O)O)c2c(-c3ccccc3)cc(=O)oc2c1
- Activity [1]: Active
- Tm [2]: 32.4 °C
- solubility [3]: Soluble

SMILES: CCOC(=O)c1cc2n(c1N)-c1ccccc1C2=O
- Activity [1]: Active
- Tm [2]: 32.4 °C
- solubility [3]: Soluble

SMILES: O=c1c2[nH]c3ccccc3c2ncn1CCc1ccc(O)cc1
- Activity [1]: Active
- Tm [2]: 30.8 °C
- solubility [3]: Insoluble

SMILES: Nc1ncnc2c1ncn2[C@@H]1O[C@H](COP(=O)(O)OP(=O)(O)O)[C@@H](O)[C@H]1O
- Tm [2]: 36.7 °C

SMILES: O=c1c2[nH]c3ccccc3c2ncn1CCc1c[nH]cn1
- Activity [1]: Active
- Tm [2]: 32.3 °C
- solubility [3]: Soluble

SMILES: COc1ccc2[nH]cc(C(=O)CN3C[C@@H]4C[C@@H](C3)c3cccc(=O)n3C4)c2c1
- Activity [1]: Active
- Tm [2]: 33.1 °C
- solubility [3]: Soluble

SMILES: CC(=O)Nc1ccc(N[C@@H]2O[C@H](CO)[C@@H](O)[C@H]2O)cc1
- Activity [1]: Active
- Tm [2]: 31.8 °C
- solubility [3]: Soluble

SMILES: O=C(Cc1c(O)c2ccccc2[nH]c1=O)NCCO
- Activity [1]: Active
- Tm [2]: 32.8 °C
- solubility [3]: Soluble

SMILES: CC(NCc1c(O)ccc2c(-c3ccccc3)cc(=O)oc12)C(=O)O (configuration not stated)
- Activity [1]: Active
- Tm [2]: 32.5 °C
- solubility [3]: Soluble

Results, then the compound that gave them:

- Activity [1]: Active
- Tm [2]: 32.4 °C
- solubility [3]: Soluble
SMILES: Cc1cc(=O)oc2cc(OCc3ccc(C(=O)O)o3)ccc12

- Activity [1]: Active
- Tm [2]: 36.5 °C
- solubility [3]: Soluble
SMILES: O=c1c2[nH]c3ccccc3c2ncn1CCc1ccc(O)c(O)c1

- Activity [1]: Active
- Tm [2]: 37.5 °C
- solubility [3]: Soluble
- Kd [4]: 370 µM
SMILES: O=C(Cc1ccc2c(c1)OCCCO2)c1ccc(O)c(O)c1O

- Activity [1]: Active
- Tm [2]: 35.5 °C
- solubility [3]: Soluble
SMILES: N=c1oc2cc(O)ccc2cc1C(=O)NCc1ccccc1

- Activity [1]: Active
- Tm [2]: 32.2 °C
- solubility [3]: Soluble
SMILES: CCc1cc(-c2n[nH]c(C)c2-c2ccc3c(c2)OCCCO3)c(O)cc1OCC(=O)O

- Activity [1]: Active
- Tm [2]: 32.4 °C
- solubility [3]: Soluble
SMILES: Cc1oc2cc(OCC(=O)NCO)ccc2c(=O)c1-c1ccc2c(c1)OCCCO2

- Activity [1]: Active
- Tm [2]: 41.7 °C
- solubility [3]: Soluble
- Kd [4]: > 500 µM
SMILES: CCCc1cc(C(=O)Cc2ccc3c(c2)OCO3)c(O)cc1O

- Activity [1]: Active
- Tm [2]: 40.3 °C
- solubility [3]: Soluble
- Kd [4]: 2 µM
SMILES: CCCc1cc(C(=O)Cc2ccc(C(=O)OCC)o2)c(O)cc1O

- Activity [1]: Active
- Tm [2]: 49.8 °C
- solubility [3]: Soluble
- Kd [4]: 3 µM
SMILES: CCOC(=O)c1ccc(-c2c(-c3cc(CC)c(O)cc3O)n[nH]c2C)o1

- Activity [1]: Active
- Tm [2]: 42.1 °C
- solubility [3]: Soluble
- Kd [4]: 20 µM
SMILES: CCc1cc(C(=O)Cc2ccc(OC)cc2)c(O)cc1O

- Activity [1]: Active
- Tm [2]: 31.3 °C
- solubility [3]: Soluble
SMILES: O=C(O)C1Cc2c([nH]c3ccccc23)C(c2ccc(O)c(O)c2)N1 (configuration not stated)

- Activity [1]: Active
- Tm [2]: 32.7 °C
- solubility [3]: Soluble
- Activity [5]: Active
SMILES: Cc1c(OCc2ccc(C(=O)O)o2)ccc2c3c(c(=O)oc12)CCC3
